Measurements: patent US7294638B2, “Treatment of ADHD” (H. Lundbeck A/S, priority 2001, dated 2007)

Assays:
[1] = test system: DAT knock-out (KO) mice; details: Gainetdinov et al. Science 1999; cited from earlier work
[2] = clinical; Barrickman et al. 1991; cited from earlier work
[3] = target: T1, dopamine D4 receptors (Homo sapiens, UniProt P21917); details: data in WO 98/28293; cited from earlier work
T1 sequence (P21917 1-419): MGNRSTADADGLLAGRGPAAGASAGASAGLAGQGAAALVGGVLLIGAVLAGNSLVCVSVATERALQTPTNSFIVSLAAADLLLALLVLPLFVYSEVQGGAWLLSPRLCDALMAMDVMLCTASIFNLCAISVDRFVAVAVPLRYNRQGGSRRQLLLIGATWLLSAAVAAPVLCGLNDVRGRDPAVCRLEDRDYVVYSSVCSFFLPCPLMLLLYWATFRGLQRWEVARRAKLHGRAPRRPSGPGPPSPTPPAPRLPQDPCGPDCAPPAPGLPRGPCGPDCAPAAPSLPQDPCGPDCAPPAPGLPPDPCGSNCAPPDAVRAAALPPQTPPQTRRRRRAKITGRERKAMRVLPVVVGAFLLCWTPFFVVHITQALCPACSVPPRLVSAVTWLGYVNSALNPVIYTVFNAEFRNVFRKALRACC

[4] = test system: DAT knock-out (KO) mice; test: DAT-KO mice model of ADHD (hyperactivity); format: in vivo; details: animal model of ADHD
Text: A very useful animal model of ADHD is the DAT knock-out (KO) mice (Gainetdinov et al. Science 1999, 283, 397-401).
The compound, (S)-(+)-3-[1-[2-(1-acetyl-2,3-dihydro-1H-indol-3-yl)ethyl]-1,2,3,6-tetrahydropyridin-4-yl]-6-chloro-1H-indole, has been tested in the DAT-KO mice, an animal model which have many behaviour patterns and responses to psychostimulants in common with individuals with ADHD (Gainetdinov et al. Science 1999, 283, 397-401).

Compound: N[C@@H](Cc1c[nH]c2ccccc12)C(=O)O [L-tryptophan]
- reversal of hyperactivity in DAT-KO mice [1]: counteract the hyperactivity

Compound: CNCCC(Oc1ccc(C(F)(F)F)cc1)c1ccccc1 (stereo not drawn) [fluoxetine]
- reversal of hyperactivity in DAT-KO mice [1]: counteract the hyperactivity
- reducing symptoms of ADHD [2]: effective in reducing symptoms of ADHD

Compound: N[C@@H](Cc1c[nH]c2ccc(O)cc12)C(=O)O [5-hydroxytryptophan]
- reversal of hyperactivity in DAT-KO mice [1]: counteract the hyperactivity

Compound: COC(=O)C(c1ccccc1)C1CCCCN1 (stereo not drawn) [methylphenidate]
- reversal of hyperactivity in DAT-KO mice [1]: can be reversed

Compound: c1ccc2nc(N3CCNCC3)ccc2c1 [quipazine]
- reversal of hyperactivity in DAT-KO mice [1]: counteract the hyperactivity

Compound: CC(N)Cc1ccccc1 (stereo not drawn) [amphetamine]
- reversal of hyperactivity in DAT-KO mice [1]: can be reversed

Compound: CC(=O)N1CC(CCN2CC=C(c3c[nH]c4cc(Cl)ccc34)CC2)c2ccccc21 (racemic) [3-[1-[2-(1-acetyl-2,3-dihydro-1H-indol-3-yl)ethyl]-1,2,3,6-tetrahydropyridin-4-yl]-6-chloro-1H-indole]
- dopamine D4 ligand potency [3]: potent dopamine D4 ligand

Compound: CC(=O)N1C[C@@H](CCN2CC=C(c3c[nH]c4cc(Cl)ccc34)CC2)c2ccccc21 [(S)-(+)-3-[1-[2-(1-acetyl-2,3-dihydro-1H-indol-3-yl)ethyl]-1,2,3,6-tetrahydropyridin-4-yl]-6-chloro-1H-indole]
- effect in the DAT-KO mice model [4]: have effect in this model
